Measurements from patent publication US11291661B2, “Pharmaceutical composition” (priority 2019, dated 2022).

Legend:
[1] = Biopharmaceutical classification / solubility statement; assay type: physicochemical
[2] = Absorption, distribution, metabolism and excretion after a single 1-mg oral dose of [14C]Compound (A); assay type: in vivo, human
From the text: Primary phase 1 oxidative pathways included:
1) oxidative O-dealkylation; 2) oxidation at the phenyl cyclopropyl isoxazole moiety; 3) oxidation at the benzothiazole and fused ring structure. Metabolites containing multiple oxidative modifications and/or glucuronidation to oxidative products were also observed in human excreta.

For `O=C(O)c1cc(F)c2nc(N3C4CC[C@H]3C[C@@H](OCc3c(-c5ccccc5OC(F)(F)F)noc3C3CC3)C4)sc2c1` [Compound (A), 2-[(1R,3r,5S)-3-({5-cyclopropyl-3-[2-(trifluoromethoxy)phenyl]-1,2-oxazol-4-yl}methoxy)-8-azabicyclo[3.2.1]octan-8-yl]-4-fluoro-1,3-benzothiazole-6-carboxylic acid], the water solubility [1] was “low water solubility”, the “biopharmaceutical classification system class” value ([1]; poorly soluble and poorly permeable compound) was “class IV” and the “Faecal excretion of related radioactivity” value [2] was ~65 % of the total dose. The “Unchanged Compound (A) in the plasma” value [2] was ~92 % of total radioactivity, the “urinary excretion of related radioactivity” value [2] was ~29 % of the total dose and the “Mass balance, administered dose recovered in excreta” value ([2]; 312 hours collection period) was “approximately 94%”. It also gave a half-life ([2]; human, plasma, read-out: half time (t1/2) in plasma (converted)) of 13.5 h, a Cmax ([2]; human, plasma, read-out: maximum concentration (Cmax) of parent in plasma) of 0.0335 µg/mL and a Tmax ([2]; human, plasma, read-out: median Tmax) of 4 h.
